Data from patent publication US20240307220A1, “Combination Therapy to Treat Temperature Sensitive Mutant Tumors” (H. LEE MOFFITT CANCER CENTER AND RESEARCH INSTITUTE INC., priority 2021, published 2024).

What was measured:
[1] = system: H1299 cells expressing A138V; assay: ChIP of p53 DNA binding in H1299 expressing A138V shifted to 32° C. with CHX or 17-AAG; format: cell-based, human; design: rescue of p53 DNA binding at 32° C. (ChIP): dose or concentration left out as unconfirmed
Experimental: FIGS. 4A to 4E show molecular chaperones mediate refolding of stockpiled ts p53 at permissive temperature. […] P53 binding to p21 promoter was determined by ChIP. […] P53 DNA binding was determined by ChIP. FIG. 4C is a diagram of cell-free luciferase fragment complementation assay that detects the DNA binding of p53-Cluc fusion protein. ZF-Nluc and p53-Cluc binding to DNA containing ZF and p53 sites juxtapose Nluc and Cluc domains to restore luciferase activity. […] The heat-treated p53-Cluc proteins were mixed with ZF-Nluc, DNA, ATP, E. coli extract containing 5 chaperones and incubated for 3 hrs at 23° C. P53 DNA binding was detected by measuring luciferase activity. The results are average of 3 experiments (mean±SD). **p<0.01.
Chromatin immunoprecipitation (ChIP). ChIP assay was performed using standard procedure. Crosslinked p53-DNA complexes were immunoprecipitated with DO-1 antibody. Samples were subjected to SYBR Green real-time PCR analysis using forward and reverse primers for the p53 binding sites in the p21 promoter ([…] (SEQ ID NO:7) and […] (SEQ ID NO:8)), and PUMA promoter ([…] (SEQ ID NO:9) and […] (SEQ ID NO:10)).

[2] = Pharmacological induction of hypothermia by CHA in nude mice; format: in vivo
Experimental: FIGS. 6A to 6D show hypothermia inhibits the growth of tumors expressing ts p53. […] One group of mice was treated with 32° C. hypothermia in 24 hr×6 format. Control animals (37° C.) were not treated. […] Tumor size (mean±SD) was plotted over time.
Animal experiment. Animal experiments were reviewed and approved by the University of South Florida IACUC. Athymic female nude mice (6-week old, Athymic Nude-Foxn1nu, Envigo) were injected subcutaneously with 0.1 ml 1:1 slurry of Matrigel (VWR 47743-715) and 1×10^7 cells in PBS at each site. The inoculated mice were housed in a cabinet set to 28° C. (ARIA BIO-C36 ventilated cabinet, TECNIPLAST) to ensure that tumors develop at ˜37° C. Each mouse received injections at 2 sites, tumors formed at >80% of sites injected with GA10 cells. N^6-cyclohexyladenosine (CHA, Sigma C9901) was dissolved at 20 mg/ml in 25% (2-Hydroxypropyl)-β-cyclodextrin (w/v, Sigma H107) and heated at 65° C. for 10 min to ensure dissolution. Camptothecin (CPT, Santa Cruz Biotechnology sc-200871B) was freshly dissolved in 1 N NaOH, diluted to ˜0.5 mg/ml with saline, and adjusted to pH10 using HCl. To induce hypothermia, 0.2 ml saline+10% glucose containing CHA and CPT was administered by intra peritoneal injection to provide a CHA dosage of 10 mg/kg body weight and CPT (when indicated) dosage of 1.5 mg/kg body weight. The mice were kept in the 28° C. cabinet and monitored using infrared thermal imaging camera (FLIR ONE Pro, FLIR® Systems, Inc.) to verify that body temperature was maintained at ˜32° C. A second injection of CHA (10 mg/kg) in 0.4 ml saline+10% glucose was given after 10 hours to maintain hypothermia for ˜24 hours. A third injection of CHA (10 mg/kg) in 0.4 ml saline+10% glucose was given after 10 hours to maintain hypothermia for ˜32 hours. After regaining normal body temperature, the mice were kept for 2-4 days in the 28° C. cabinet to allow weight recovery (˜10% weight loss occurred during hypothermia due to loss of mobility and food intake). The treatment was repeated 4-5 times (24 hr×6 or 32 hr×5 format). In each subsequent round CHA dosage was increased by 25% to compensate for the gradual loss of sensitivity.
Pharmacological induction of hypothermia. To test the effect of hypothermia on tumors with ts p53, the adenosine A1 receptor (A1AR) agonist CHA ([…]) was used to lower mouse body temperature to 32° C. for 24-48 hours. […] Intraperitoneal injection of CHA caused body temperature to decrease to ˜3° C. above the environment in ˜10 minutes, consistent with the induction of hibernation-like response in rats and mice by A1AR agonists (Tupone D, et al. J Neurosci 2013 33:14512-25; Futatsuki T, et al. Sci Rep 2018 8:2717). […] This was achieved by keeping the CHA-treated mice in a 28° C. environment (FIG. 6A). […]

UC3 bladder cancer cells = assay: UC3 colony formation after 2 hrs drug treatment, washout and 32° C. or 37° C. incubation; format: cell-based; conditions: 2 hrs drug at 37° C., washout, 32° C. vs 37° C. 24 hrs, then 7 days at 37° C.
Experimental: FIGS. 17A and 17B show hypothermia treatment given after chemotherapy enhances drug response in bladder cancer. […] The washed cells were incubated at 32° C. or 37° C. for 24 hrs, followed by 7 days at 37° C. and crystal violet staining for colony formation.
Standard bladder intravesical chemotherapy involves 1-2 hr irrigation with drugs at 37° C. or 42° C. The effect of treating cells with 32° C. hypothermia after chemotherapy was tested to avoid interference with drug uptake. TS mutant p53 activation peaks 6-8 hrs after shift to 32° C., which should cooperate with chemotherapy-induced DNA damage to induce cell death. […] Saline irrigation of up to 24 hrs is routinely performed after transurethral resection of bladder tumor (TURBT) procedure to prevent clotting. Therefore, irrigation with cooled saline after intravesical chemotherapy is expected to be well-tolerated and safe.

[3] = nude mice, intraperitoneal injection

In the case of `C=CCNC1=C2C[C@@H](C)C[C@H](OC)[C@H](O)[C@@H](C)/C=C(\C)[C@H](OC(N)=O)[C@@H](OC)/C=C\C=C(/C)C(=O)NC(=CC1=O)C2=O` [17-AAG], the “p53 activation at 32° C. (ChIP DNA binding)” value ([1]; 50 μM 17-AAG) is reported as “blocked p53 activation”.
In the case of `OC[C@H]1O[C@@H](n2cnc3c(NC4CCCCC4)ncnc32)[C@H](O)[C@@H]1O` [CHA, N^6-cyclohexyladenosine], the “weight loss during hypothermia” value ([2]; CHA 10 mg/kg injections, due to loss of mobility and food intake) is reported as roughly 10%, the “duration body temperature maintained at 32° C.” value ([2]; multiple injections of CHA, 28° C. environment) is reported as 24 to 32 h and the “body temperature after CHA injection” value [2, 3] is reported as roughly 3 °C above the environment. For the same molecule, the “time for body temperature decrease” value [2, 3] was roughly 10 min.
For `COc1cccc2c1C(=O)c1c(O)c3c(c(O)c1C2=O)C[C@@](O)(C(=O)CO)C[C@@H]3O[C@H]1C[C@H](N)[C@H](O)[C@H](C)O1` [Doxorubicin], the “effect of 32° C. for 24 hrs after drug on growth inhibition (colony formation)” value (UC3 bladder cancer cells) was “modestly increased”.
In the case of `Nc1ccn([C@@H]2O[C@H](CO)[C@@H](O)C2(F)F)c(=O)n1` [Gemcitabine], the “effect of 32° C. for 24 hrs after drug on growth inhibition (colony formation)” value (UC3 bladder cancer cells) is reported as “modestly increased”.
With `C[C@@H]1C[C@@H]([C@H](O)CC2CC(=O)NC(=O)C2)C(=O)[C@@H](C)C1` [cycloheximide] the “rescue of p53 DNA binding at 32° C. (ChIP)” value ([1]; cycloheximide (CHX)) was “did not prevent the rescue of DNA binding”.
